In PubChem BioAssay AID330 (DTP/NCI, 2004):
Where “and” joins values, the source holds several entries; their conditions need not be identical. Equal values may be shown once. Inconclusive results and toxic doses are left out.

System: P388 leukemia ip, CD2F1 mice, survival T/C
Assay: NCI In Vivo Anticancer Drug Screen. Data for tumor model P388 Leukemia (intraperitoneal) in CD2F1 (CDF1) mice
Conditions: endpoint: median survival time, higher = longer survival
Method in brief: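 Mice carrying the transplanted tumor received test compound or vehicle. Survival was recorded in each group, and the value is the treated-group measurement divided by that of the vehicle-treated control group.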

[1] = dose: 60.0 mg/kg/injection, schedule: Q01DX005 (ip), vehicle: saline with Tween-80
[2] = dose: 120.0 mg/kg/injection, schedule: Q01DX005 (ip), vehicle: saline with Tween-80

Nc1nc(N)c(SC(F)(F)F)c(Cl)n1
T/C [1]: 100 % of control
T/C [2]: 103 % of control

c1ccc2c(c1)OC1OC2Oc2ccccc21
T/C [1]: 100 % of control
T/C [2]: 100 % of control
T/C (dose: 240.0 mg/kg/injection, schedule: Q01DX005 (ip), vehicle: saline with Tween-80): 101 % of control

C=CCN(CC=C)C(=O)CCN1CC1
T/C (dose: 2.5 mg/kg/injection, schedule: Q04DX003 (ip), vehicle: saline): 108 % of control
T/C (dose: 5.0 mg/kg/injection, schedule: Q04DX003 (ip), vehicle: saline): 87 % of control
T/C (dose: 10.0 mg/kg/injection, schedule: Q04DX003 (ip), vehicle: saline): 104 % of control

COc1c(C)c2c(c(C)c1Cl)Oc1c(C)c(O)c(Cl)c(C)c1C(=O)O2
T/C (dose: 1.12 mg/kg/injection, schedule: Q01DX009 (ip), vehicle: Klucel (hydroxypropylcellulose) (HPC)): 112 % of control
T/C (dose: 2.25 mg/kg/injection, schedule: Q01DX009 (ip), vehicle: Klucel (hydroxypropylcellulose) (HPC)): 105 % of control
T/C (dose: 4.5 mg/kg/injection, schedule: Q01DX009 (ip), vehicle: Klucel (hydroxypropylcellulose) (HPC)): 108 % of control
T/C (dose: 9.0 mg/kg/injection, schedule: Q01DX009 (ip), vehicle: Klucel (hydroxypropylcellulose) (HPC)): 96 % of control
T/C (dose: 18.0 mg/kg/injection, schedule: Q01DX009 (ip), vehicle: Klucel (hydroxypropylcellulose) (HPC)): 102 % of control

OC1COC(c2ccccc2)OC1C1OC(c2ccccc2)OC2COC(c3ccccc3)OC21 (configuration not stated)
T/C (dose: 50.0 mg/kg/injection, schedule: Q01DX009 (ip), vehicle: saline with Tween-80): 107 % of control
T/C (dose: 100.0 mg/kg/injection, schedule: Q01DX009 (ip), vehicle: saline with Tween-80): 96 % of control
T/C (dose: 200.0 mg/kg/injection, schedule: Q01DX009 (ip), vehicle: saline with Tween-80): 97 % of control

O=C1NC2CCCC1C(c1ccccc1)NC2c1ccccc1 (configuration not stated)
T/C (dose: 100.0 mg/kg/injection, schedule: Q04DX003 (ip), vehicle: suspension in saline): 98 % of control
T/C (dose: 200.0 mg/kg/injection, schedule: Q04DX003 (ip), vehicle: suspension in saline): 99 % of control
T/C (dose: 400.0 mg/kg/injection, schedule: Q04DX003 (ip), vehicle: suspension in saline): 100 % of control

CC1(C(=O)O)CCC2(C(=O)O)CCC3(C)C(=CCC4C5(C)CC(O)C(O)C(C)(CO)C5CCC43C)C2C1 (configuration not stated)
T/C (dose: 6.25 mg/kg/injection, schedule: Q01DX009 (ip), vehicle: saline): 100 % of control
T/C (dose: 12.5 mg/kg/injection, schedule: Q01DX009 (ip), vehicle: saline): 100 % of control
T/C (dose: 25.0 mg/kg/injection, schedule: Q01DX009 (ip), vehicle: saline): 96 % of control

S=C1NCC(c2ccccc2)(c2ccccc2)N1
T/C (dose: 6.25 mg/kg/injection, schedule: Q04DX003 (ip), vehicle: Klucel (hydroxypropylcellulose) (HPC)): 103 % of control
T/C (dose: 12.5 mg/kg/injection, schedule: Q04DX003 (ip), vehicle: Klucel (hydroxypropylcellulose) (HPC)): 98 % of control

CCCCc1ccc(N2C(N)=NC(N)=NC2(C)C)cc1
T/C (dose: 3.12 mg/kg/injection, schedule: Q01DX005 (ip), vehicle: Klucel (hydroxypropylcellulose) (HPC)): 108 % of control and 106 % of control and 111 % of control
T/C (dose: 6.25 mg/kg/injection, schedule: Q01DX005 (ip), vehicle: Klucel (hydroxypropylcellulose) (HPC)): 110 % of control [middle of 4 runs]
T/C (dose: 12.5 mg/kg/injection, schedule: Q01DX005 (ip), vehicle: Klucel (hydroxypropylcellulose) (HPC)): 114 % of control [middle of 4 runs]
T/C (dose: 25.0 mg/kg/injection, schedule: Q01DX005 (ip), vehicle: Klucel (hydroxypropylcellulose) (HPC)): 120 % of control and 109 % of control

CCN(CCO)CC(O)Cn1cnc2c(N)ncnc21 (configuration not stated) (tested in a mixture with another compound)
T/C (dose: 60.0 mg/kg/injection, schedule: Q01DX005 (ip), vehicle: saline): 97 % of control
T/C (dose: 120.0 mg/kg/injection, schedule: Q01DX005 (ip), vehicle: saline): 100 % of control
T/C (dose: 240.0 mg/kg/injection, schedule: Q01DX005 (ip), vehicle: saline): 95 % of control

CC(C)(C)OC(=O)NC(N)=NCCCC(NC(=O)OC(C)(C)C)C(=O)O (configuration not stated)
T/C (dose: 50.0 mg/kg/injection, schedule: Q01DX005 (ip), vehicle: saline with Tween-80): 100 % of control
T/C (dose: 100.0 mg/kg/injection, schedule: Q01DX005 (ip), vehicle: saline with Tween-80): 103 % of control
T/C (dose: 200.0 mg/kg/injection, schedule: Q01DX005 (ip), vehicle: saline with Tween-80): 102 % of control

CCc1nc(N)nc(N)c1-c1ccc(N=[N+]=[N-])c(Cl)c1
T/C (dose: 100.0 mg/kg/injection, schedule: Q04DX002 (ip), vehicle: saline with Tween-80): 160 % of control
T/C (dose: 200.0 mg/kg/injection, schedule: Q04DX002 (ip), vehicle: saline with Tween-80): 116 % of control
T/C (dose: 400.0 mg/kg/injection, schedule: Q04DX002 (ip), vehicle: saline with Tween-80): 90 % of control
